Where two headings read alike, the source gives them in different places. Starred links: 1 amine or outer side, 2 acyl side, 3 side chain; linkers in the order of their positions; H or OH if unused. Non-standard residues stand in square brackets, D forms with d. Groups on a side chain read outwards from the residue. *: point of attachment. Decanoyl(10-(4-HOOC-PhO)) = O=C(O)c1ccc(OCCCCCCCCCC(=O)*)cc1; C20 diacid = O=C(O)CCCCCCCCCCCCCCCCCCC(=O)*; C18 diacid = O=C(O)CCCCCCCCCCCCCCCCC(=O)*; C16 diacid = O=C(O)CCCCCCCCCCCCCCC(=O)*; γGlu = O=C(O)[C@H](CCC(=O)[*:2])N[*:1]; εLys = N[C@@H](CCCCN[*:1])C(=O)[*:2]; Trx = NC[C@H]1CC[C@H](C(=O)O)CC1; AEEA = NCCOCCOCC(=O)O; Aib = CC(C)(N)C(=O)O
T1: human amylin receptor (hAmyR3) (Homo sapiens, UniProt O60896+P30988)
T1 construct: host or cells: BHK cells (Hollex-1 line: human calcitonin receptor (a) + CRE-Luc), further transfected with human RAMP3
T1 sequence (O60896 whole entry, looked up): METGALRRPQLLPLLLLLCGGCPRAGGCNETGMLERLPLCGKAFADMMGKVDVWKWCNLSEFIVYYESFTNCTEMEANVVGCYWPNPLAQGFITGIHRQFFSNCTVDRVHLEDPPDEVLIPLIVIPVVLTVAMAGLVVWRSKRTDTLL
T1 sequence (P30988 whole entry, looked up): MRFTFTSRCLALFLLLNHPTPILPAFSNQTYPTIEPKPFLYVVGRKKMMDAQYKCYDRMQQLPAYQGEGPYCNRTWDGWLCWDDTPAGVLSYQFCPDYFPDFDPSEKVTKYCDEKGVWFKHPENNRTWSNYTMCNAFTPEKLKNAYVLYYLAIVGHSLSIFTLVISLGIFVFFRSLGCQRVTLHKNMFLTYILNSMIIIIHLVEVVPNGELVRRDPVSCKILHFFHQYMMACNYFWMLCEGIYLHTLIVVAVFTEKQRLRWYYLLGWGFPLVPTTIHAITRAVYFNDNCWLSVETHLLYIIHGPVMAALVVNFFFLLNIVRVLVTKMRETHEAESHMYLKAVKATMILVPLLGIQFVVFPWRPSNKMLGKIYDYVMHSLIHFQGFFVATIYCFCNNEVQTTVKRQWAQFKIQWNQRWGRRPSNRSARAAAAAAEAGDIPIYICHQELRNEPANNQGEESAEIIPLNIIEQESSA


Key:
human GLP-1 receptor = target: T2, human GLP-1 receptor (Homo sapiens, UniProt P43220); test: Human GLP-1 receptor in vitro potency assay (CRE-luciferase reporter, BHK cells); assay type: cell-based; conditions: for Ability to agonise the GLP-1 receptor, in words: Tables 4a-4c
T2 construct: expressed in transfected cells; host or cells: BHK (Baby Hamster Kidney) cells, clone BHK 467-12A KZ-10, stably transfected, with CRE-luciferase reporter
Description: It is thus possible to measure GLP-1 receptor activity using a CRE-luciferase reporter gene introduced into Baby Hamster Kidney (BHK) cells co-expressing the GLP-1 receptor.
(§1) Cells were aliquoted and stored at -180° C. until use.
Plates were sealed and incubated at room temperature with gentle shaking for 30 minutes while protected from light. Luminescence was detected on a luminescence plate reader e.g. a Synergy 2 (BioTek).

Sprague Dawley (SD) rats = test: Acute food intake in ad libitum fed rats after a single subcutaneous administration; assay type: in vivo, rat; conditions: for Food intake relative to vehicle (%) 0-24 hr, 10 nmol/kg / Food intake relative to vehicle (%) 24-48 hr, 10 nmol/kg: rat, single administration;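 for all read-outs here: food intake monitored in the HM2 system, three rats per cage kept on a reversed light cycle, with food and water freely available after the subcutaneous dose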
Excerpt: Sprague Dawley (SD) rats from Taconic Europe, Denmark were used for the acute food intake experiments, wherein the principles of laboratory animal care were followed.
The rats arrived at least 10-14 days before the start of the experiment to allow acclimatisation to experimental settings. During this period, the animals were handled at least 2 times. Immediately upon arrival, rats were put on a reversed light cycle (dark from 11am - 11pm) and put in the HM2 system and ID chipped. Three rats were housed in each cage. […] The rats were dosed once according to body weight with a 0.01-3 mg/kg solution administered subcutaneously (sc). The time of dosing was recorded for each group.
After dosing, the rats were returned to their home cages, where they had access to food and water. […] At the end of the experimental session, the animals were euthanised.

[1] = target: T3, human amylin receptor (hAmyR3) (Homo sapiens, UniProt O60896+P30988); test: Human amylin receptor in vitro potency assay (CRE-luciferase reporter, BHK cells); assay type: cell-based; conditions: for Ability to agonise the amylin receptor, in words: Tables 4a-4c;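 for all read-outs here: BHK cells expressing human calcitonin receptor plus RAMP3 (amylin-3 receptor) with a CRE-luciferase reporter, agonist activity read as luminescence from cAMP-driven transcription, 7-point serial dilutions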
T3 construct: host or cells: BHK cells (Hollex-1 line: human calcitonin receptor (a) + CRE-Luc), further transfected with human RAMP3
Excerpt: (§2) Activation of hAmyR3 leads to increased cellular concentrations of cAMP. Consequently, transcription is activated by promotors containing multiple copies of the cAMP response element (CRE). It is thus possible to measure hAmyR3 activity using a CRE-luciferase reporter gene introduced into Baby Hamster Kidney (BHK) cells co-expressing the hAmyR3.
(§3) The cell line was further transfected with human receptor modifying protein 3 (RAMP3) using standard methods. This turns the human calcitonin receptor into a human amylin-3(a) receptor.
as §1
(§4) The plate was incubated over night at 37° C. in 5% CO2. On the day of the assay, cells were washed three times in assay buffer. Serial dilutions (7-fold dilutions, 7 concentrations pr. compound and one well containing only assay buffer) of comparator compounds and GLP-1 receptor-amylin receptor co-agonists were performed in assay buffer often starting from approximately 10-100 nM in 96-well plates and 30 µL of each concentration added to the 384-well assay plate with cells. […] The assay plate was sealed, incubated at room temperature with gentle shaking for 5 minutes followed by 30 minutes incubation without shaking while protected from light. Luminescence was detected on a luminescence plate reader e.g. a Synergy 2 (BioTek).

[2] = Pharmacokinetic studies in Beagle dogs after oral administration of SNAC-based tablets; assay type: in vivo; conditions: for Tmax / half-life / T½: male, Beagle
Procedure, shortened: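 Fasted male Beagle dogs received immediate-release oral tablets containing 3–4 mg test substance with 100–300 mg SNAC, optionally after ~3 nmol/kg s.c. SEQ ID NO: 237 10 min before. EDTA plasma sampled up to 240 h; LCMS concentrations analysed non-compartmentally.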

[3] = target: T1, human amylin receptor (hAmyR3); test: Human amylin receptor in vitro potency assay (CRE-luciferase reporter, BHK cells); assay type: cell-based; conditions: Tables 4a-4c
Excerpt: as §2, §3, §1, §4

[4] = dogs, oral administration (tablet)
[5] = dog, in vivo, dogs, oral administration (tablet), read-out: Tmax
[6] = dog, in vivo, dogs, oral administration (tablet), read-out: T½ (converted)
[7] = Table 4a, BHK cells expressing human GLP-1R, CRE-Luc, 3 hours, read-out: Human GLP-1R potency [EC50 (pM)]
[8] = Table 4a, BHK hAmyR3/CRE-Luc cells, 3 hours, read-out: Human AmyR3 potency [EC50 (pM)]

T2 sequence (P43220 24-463): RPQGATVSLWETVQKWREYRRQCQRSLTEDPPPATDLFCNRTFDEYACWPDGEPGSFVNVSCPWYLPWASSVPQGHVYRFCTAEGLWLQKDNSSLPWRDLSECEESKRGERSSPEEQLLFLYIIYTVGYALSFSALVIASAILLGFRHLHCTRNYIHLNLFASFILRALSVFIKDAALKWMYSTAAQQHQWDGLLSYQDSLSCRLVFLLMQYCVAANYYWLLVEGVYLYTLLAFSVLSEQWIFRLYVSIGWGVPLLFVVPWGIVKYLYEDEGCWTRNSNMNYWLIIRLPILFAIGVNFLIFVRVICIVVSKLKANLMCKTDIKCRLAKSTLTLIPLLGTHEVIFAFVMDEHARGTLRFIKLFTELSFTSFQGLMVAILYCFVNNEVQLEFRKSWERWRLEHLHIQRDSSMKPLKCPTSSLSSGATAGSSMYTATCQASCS

Molecule | EC50 (human GLP-1 receptor; [7]) | EC50 [1, 8] | AUC/D ([2]; dog, in vivo, po) | Cmax/D ([2]; dog, in vivo, po) | Tmax ([2]; dog, in vivo, po, Tmax (hr)) | half-life ([2]; dog, in vivo, po, T½ (hr)) | Food intake relative to vehicle (%) 0-24 hr, 10 nmol/kg (Sprague Dawley (SD) rats; Table 6a) | Food intake relative to vehicle (%) 24-48 hr, 10 nmol/kg (Sprague Dawley (SD) rats; Table 6a) | other results
H-HWEGTFTSDVSSYLEEQAARK([AEEA-AEEA-γGlu-Decanoyl(10-(4-HOOC-PhO))])FIEWLVRGRGEGGGGGASELSTAALGRLSK([AEEA-AEEA-γGlu-Decanoyl(10-(4-HOOC-PhO))])ELHELATLPRTETGSGSP-NH2 [Compound 0231] | – | – | – | – | – | – | 27% | 76% | EC50 (human GLP-1 receptor): 5.6 pM; EC50 [1]: 68 pM; AUC/D [2, 4]: 0.83 kg·h/L; Cmax/D [2, 4]: 0.27 kg/L; Tmax [2, 5]: 1 h; half-life [2, 6]: 6 h
H-H[Aib]EGTFTSDVSK([AEEA-AEEA-γGlu-C16 diacid])YLEEQAARK([AEEA-AEEA-γGlu-C16 diacid])FIAWLVRGRGGGGGEASELSTAALGRLSAELHELATLPRTETGSGSP-NH2 [Compound 0516] | 3.3 pM | 8.9 pM | – | – | 2 h | 99 h | 87% | 82% | T½ ([2]; dog, in vivo, po): 103 h
H-H[Aib]EGTFTSDVSRYLEEQAAREFIEWLVRGRK([AEEA-AEEA-γGlu-Trx-C20 diacid])GGGGEASELSTAALGRLSAELHELATLPRTETGSGSP-NH2 [Compound 0511] | 8.8 pM | 8.4 pM | 3.80 kg·h/L | 0.14 kg/L | 2 h | 25 h | 61% | 75% | –
CC[C@H](C)[C@H](NC(=O)[C@H](Cc1ccccc1)NC(=O)[C@H](CCC(=O)O)NC(=O)[C@H](CCCNC(=N)N)NC(=O)[C@H](C)NC(=O)[C@H](C)NC(=O)[C@H](CCC(N)=O)NC(=O)[C@H](CCC(=O)O)NC(=O)[C@H](CCC(=O)O)NC(=O)[C@H](CC(C)C)NC(=O)[C@H](Cc1ccc(O)cc1)NC(=O)[C@H](CO)NC(=O)[C@H](CO)NC(=O)[C@H](CCCCNC(=O)COCCOCCNC(=O)COCCOCCNC(=O)CC[C@H](NC(=O)[C@H]1CC[C@H](CNC(=O)CCCCCCCCCCCCCCCCCCC(=O)O)CC1)C(=O)O)NC(=O)[C@H](CC(=O)O)NC(=O)[C@H](CO)NC(=O)[C@@H](NC(=O)[C@H](Cc1ccccc1)NC(=O)[C@@H](NC(=O)CNC(=O)[C@H](CCC(=O)O)NC(=O)C(C)(C)NC(=O)[C@@H](N)Cc1c[nH]cn1)[C@@H](C)O)[C@@H](C)O)C(=O)N[C@@H](CCC(=O)O)C(=O)N[C@@H](Cc1c[nH]c2ccccc12)C(=O)N[C@@H](CC(C)C)C(=O)N[C@H](C(=O)N[C@@H](CCCNC(=N)N)C(=O)NCC(=O)N[C@@H](CCCNC(=N)N)C(=O)NCC(=O)N[C@@H](CCC(=O)O)C(=O)N[C@@H](C)C(=O)N[C@@H](CO)C(=O)N[C@@H](CCC(=O)O)C(=O)N[C@@H](CC(C)C)C(=O)N[C@@H](CO)C(=O)N[C@H](C(=O)N[C@@H](C)C(=O)N[C@@H](C)C(=O)N[C@@H](CC(C)C)C(=O)NCC(=O)N[C@@H](CCCNC(=N)N)C(=O)N[C@@H](CC(C)C)C(=O)N[C@@H](CO)C(=O)N[C@@H](C)C(=O)N[C@@H](CCC(=O)O)C(=O)N[C@@H](CC(C)C)C(=O)N[C@@H](Cc1c[nH]cn1)C(=O)N[C@@H](CCC(=O)O)C(=O)N[C@@H](CC(C)C)C(=O)N[C@@H](C)C(=O)N[C@H](C(=O)N[C@@H](CC(C)C)C(=O)N1CCC[C@H]1C(=O)N[C@@H](CCCNC(=N)N)C(=O)N[C@H](C(=O)N[C@@H](CCC(=O)O)C(=O)N[C@H](C(=O)NCC(=O)N[C@@H](CO)C(=O)NCC(=O)N[C@@H](CO)C(=O)N1CCC[C@H]1C(N)=O)[C@@H](C)O)[C@@H](C)O)[C@@H](C)O)[C@@H](C)O)C(C)C [Compound 0440] | – | – | – | – | – | – | 81% | 77% | EC50 (human GLP-1 receptor): 5.7 pM; EC50 [1]: 10.4 pM; AUC/D [2, 4]: 5.78 kg·h/L; Cmax/D [2, 4]: 0.29 kg/L; Tmax [2, 5]: 1.8 h; half-life [2, 6]: 32 h
H-HWEGTFTSDVSSYLEEQAARK([AEEA-AEEA-γGlu-Decanoyl(10-(4-HOOC-PhO))])FIEWLVRGRGEGGGGGASELSTAALGRLSAELHELK([AEEA-AEEA-γGlu-Decanoyl(10-(4-HOOC-PhO))])TLPRTETGSGSP-NH2 [Compound 0232] | – | – | – | – | – | – | 61% | 95% | EC50 (human GLP-1 receptor): 6.4 pM; EC50 [1]: 74.2 pM; AUC/D [2, 4]: 2.00 kg·h/L; Cmax/D [2, 4]: 0.51 kg/L; Tmax [2, 5]: 0.8 h; half-life [2, 6]: 4 h
H-Aib-EGTFTSDVSSYLEGQAA-K([2-[2-[2-[[2-[2-[2-[[(4S)-4-Carboxy-4-(17-Carboxyheptadecanoylamino)Butanoyl]Amino]Ethoxy]Ethoxy]Acetyl]Amino]Ethoxy]Ethoxy]Acetyl])-EFIAWLVRGRGGQEPGQEP-K([2-[2-[2-[[2-[2-[2- … (ends and bridges not checked) peptide: H[Aib]EGTFTSDVSSYLEGQAAK([AEEA-AEEA-γGlu-C18 diacid])EFIAWLVRGRGGQEPGQEPK([AEEA-AEEA-γGlu-C18 diacid])CNTATCATQRLAEFLRHSSNNFGPILPPTNVGSNTP-NH2 | – | – | – | – | – | – | – | – | Ability to agonise the amylin receptor, in words [3]: do not activate the amylin receptor

Second part, led by results:

EC50 (human GLP-1 receptor; [7]) | EC50 [1, 8] | AUC/D ([2]; dog, in vivo, po) | Cmax/D ([2]; dog, in vivo, po) | Tmax ([2]; dog, in vivo, po, Tmax (hr)) | half-life ([2]; dog, in vivo, po, T½ (hr)) | Molecule | Food intake relative to vehicle (%) 0-24 hr, 10 nmol/kg (Sprague Dawley (SD) rats; Table 6a) | Food intake relative to vehicle (%) 24-48 hr, 10 nmol/kg (Sprague Dawley (SD) rats; Table 6a) | other results
8.3 pM | 10.7 pM | 5.36 kg·h/L | 0.21 kg/L | 2 h | 24 h | H-H[Aib]EGTFTSDVSSYLEEQAARK([εLys-AEEA-AEEA-γGlu-Trx-C20 diacid])FIEWLVRGRGEASELSTAALGRLSAELHELATLPRTETGSGSP-NH2 [Compound 0439] | 43% | 41% | –
19.4 pM | 25.9 pM | 10.90 kg·h/L | 0.27 kg/L | 1.3 h | 41 h | H-H[Aib]EGTFTSDVSSYLEGQAAKEFIAWLVRGRK([εLys-AEEA-AEEA-γGlu-C18 diacid])GGEASELSTAALGRLSAELHELATLPRTETGSGSP-NH2 [Compound 0045] | 46% | 80% | –
4.7 pM | 6.9 pM | 8.58 kg·h/L | 0.22 kg/L | 1 h | 52 h | H-H[Aib]EGTFTSDVSSYLEEQAAREFIAWLVRGRK([εLys-AEEA-AEEA-γGlu-C20 diacid])GGGGEASELSTAALGRLSAELHELATLPRTETGSGSP-NH2 [Compound 0552] | 56% | 55% | –
2.5 pM | 14 pM | 15.16 kg·h/L | 0.36 kg/L | 1.5 h | 47 h | H-H[Aib]EGTFTSDVSSYLEGQAAREFIAWLVRGRGQEPK([AEEA-AEEA-γGlu-C18 diacid])GQAPEASELSTAALGRLSAELHELATLPRTETGSGSP-NH2 [Compound 0084] | 44% | 50% | –
9.1 pM | 10.6 pM | – | – | – | 24 h | H-H[Aib]EGTFTSDVSSYLEEQAAREFIAWLVRGRK([AEEA-AEEA-γGlu-Trx-C20 diacid])GGGGEASELSTAALGRLSAELHELATLPRTETGSGSP-NH2 [Compound 0120] | 53% | 55% | Ability to agonise the GLP-1 receptor, in words (human GLP-1 receptor): fully potent on both receptors; Food intake relative to vehicle (%) 0-24 hr, 10 nmol/kg (Sprague Dawley (SD) rats; Table 6b): 53%; Food intake relative to vehicle (%) 24-48 hr, 10 nmol/kg (Sprague Dawley (SD) rats; Table 6b): 55%; Inhibition of food intake, in words (Sprague Dawley (SD) rats; rats, 10 nmol/kg): significant inhibition of food intake within the first 48 hours; Ability to agonise the amylin receptor, in words [1]: fully potent on both receptors; T½ ([2]; dog, in vivo, po): 22 h
3 pM | 11.5 pM | – | – | 1.5 h | 44 h | H-H[Aib]EGTFTSDVSSYLEEQAAREFIAWLVRGRK([AEEA-AEEA-γGlu-C18 diacid])GGGGEASELSTAALGRLSAELHELATLPRTETGSGSP-NH2 [Compound 0111] | 28% | 75% | Ability to agonise the GLP-1 receptor, in words (human GLP-1 receptor): retained full potency on both receptors; Ability to agonise the amylin receptor, in words [1]: retained full potency on both receptors; Tmax ([2]; dog, in vivo, po): 2.0 h; T½ ([2]; dog, in vivo, po): 42 h

Source: patent US20230331803A1, “CO-AGONISTS OF THE GLP-1 AND AMYLIN RECEPTORS” (priority 2020, published 2023)
